Data on 1 substance can be found in paper PMC9732821, “Neurotrophic Activity and Its Modulation by Zinc Ion of a Dimeric Peptide Mimicking the Brain-Derived Neurotrophic Factor N-Terminal Region” (ACS Chemical Neuroscience, 2022).

The test system of one experiment is SH-SY5Y cells. Nature of the experiment: RT-PCR gene expression analysis of differentiated SH-SY5Y cells. It is filed as cell-based, human. Conditions: RT-PCR mRNA, four replicas, two independent experiments. An excerpt: Figure 4 Neuronal differentiation and polarization genes stimulated by BDNF and d-bdnf mimetic peptide. (A) Schematic timeline of the experiment. As non-differentiated control, we used untreated cells seeded at the same density (non-diff ctrl, white bars). As a control for the expression of neuronal polarization genes, we used cells stopped at d5 (non-pol ctrl). (B) RT-PCR analysis of the mRNA expression levels of neuronal differentiation markers (NTRK2, LAMC1, and NEFM) and polarization markers (GAP43, MAP2, and MAPT) induced by BDNF and d-bdnf with respect to non-diff and non-pol ctrl samples, respectively. Data are expressed as fold changes with respect to the average ctrl value set to 1, and the mean ± SEM of four replicas from two independent experiments are reported (****p < 0.0001, ***p < 0.001, **p < 0.01, and *p < 0.05 according to the one-way ANOVA with Bonferroni’s multiple comparison test).
Figure 6 Modulation of d-bdnf neurotrophic activity by Zn^2+ ion. (A) Neurite outgrowth assay for d-bdnf-Zn^2+ conjugate. The ctrl and d-bdnf samples are the same as in Figure 2C, here reported as a reference. Data represent the mean ± SD of fields pooled from two independent replicas. (****p < 0.0001, according to the one-way ANOVA with Dunnett’s multiple comparison test). (B) RT-PCR analysis of the mRNA expression levels of the marker genes (as described in Figure 3B). Data are expressed as fold changes with respect to the average ctrl value set to 1, and the mean ± SEM of four replicas from two independent experiments are reported (**p < 0.01, *p < 0.05, vs ctrl; #p < 0.05 vs d-bdnf, according to one-way ANOVA with Bonferroni’s multiple comparison test). […]
RT-PCR analysis of SH-SY5Y differentiation
At the end of each differentiation treatment and relative controls, cells were col lected, and total RNA was extracted using the Rneasy Mini Kit (Qiagen). The RNA concentration and purity were checked at the Nanodrop instrument (Thermofisher). cDNA synthesis was performed with 1 µg of RNA using i-Script cDNA synthesis kit (BioRad). Real-time PCR reactions consisted of 10 µL of SsoAdvanced™ Universal SYBR® Green Supermix - Bio-Rad, 0.5 µL of both 10 µM forward and reverse primers, 5 µL of cDNA (50 ng), and 4 µL of H2O. The primer sequences and the product size […]
HPRT1 and NEFM primers were purchased by Biorad (qHsaCID0016375 and qHsaCED0043021, Bio-Rad). The mRNA levels for each sample were normalized against GAPDH and HPRT1 mRNA levels, and the relative expression was calculated by using the methods of the […]

A further experiment concerns ERK. Nature of the experiment: competition experiments, ERK phosphorylation with BDNF plus d-bdnf in differentiated SH-SY5Y cells. In kind it is cell-based, human. Conditions: BDNF 1 nM + d-bdnf 10 nM-100 µM, or d-bdnf 10 µM + BDNF 0.074 nM–10 nM; 10 min; 2 independent replicas. An excerpt: The possibility of mimicking the function of the full-length BDNF protein by using a linear peptide fragment encompassing the first 12 amino acids of the mature NT N-terminal was already postulated.[31] Here, we named this sequence as m-bdnf (Figure 1A) and performed a systematic comparison between the performance of the full-length human BDNF produced recombinantly in Escherichia coli([32]) and (i) m-bdnf, (ii) a dimeric peptide displaying two copies of the m-bdnf sequence covalently bound by a disulfide bridge (d-bdnf), and (iii) a monomeric peptide displaying the scrambled sequence of m-bdnf (s-bdnf). We first investigated the ability of these peptides to activate the TrkB receptor. […] Specifically, an EC50 concentration of BDNF (1 nM) or of d-bdnf (10 μM) was used in combination with the increasing concentration of d-bdnf and BDNF, respectively, and the increase of ERK phosphorylation was assessed. […] Of note, we also performed a non-permeabilizing immunofluorescence analysis to quantify the membrane-bound BDNF in differentiated SH-SY5Y cells in the absence or presence of BDNF and d-bdnf (Figure S1C,D). […] The same increment was not observed upon treatment with the d-bdnf peptide, while instead we measured a slight (∼18%) decrease of the signal possibly due to the ability of the peptide to displace endogenous BDNF at the tested dose (10 μM). […]

With “HSDPARRGELSVC-C-VSLEGRRAPDSH (disulfide) [d-bdnf]”, the MAPT expression result in the experiment on SH-SY5Y cells (axon marker, d-bdnf vs BDNF) is “to a similar extent to BDNF”. The MAP2 expression result in the experiment with SH-SY5Y cells (dendrite marker, d-bdnf vs BDNF) is recorded as “to a similar extent to BDNF”. In addition, in the experiment with SH-SY5Y cells (d-bdnf vs BDNF), the LAMC1 expression entry is “to promote, to a similar extent of BDNF, the expression of NTRK2 and LAMC1 genes”; the NTRK2 expression entry is “to promote, to a similar extent of BDNF, the expression of NTRK2 and LAMC1 genes”. In addition, in the experiment on SH-SY5Y cells, the GAP43 gene expression entry was “not significantly increased by either the d-bdnf doses tested” and the NEFM gene expression entry is “significantly increased only at the highest d-bdnf dose (10 μM)”. For the same substance, the “competition / additivity on ERK phosphorylation” value in the experiment with ERK was “neither antagonist nor additive effects”.
